In patent US20210369693A1, “METHODS AND PHARMACEUTICAL COMPOSITIONS FOR THE TREATMENT OF NON-ALCOHOLIC STEATOHEPATITIS” (Eiger Biopharmaceuticals, Inc., priority 2017, published 2021):
Converted amounts (≈) assume the structure as drawn.

Legend:
[1] = cited from earlier work
animal model of NASH = test: Animal model of NASH (hypothesized); format: in vivo
Description: Accordingly, in one aspect, methods of treating one or more symptoms of NAFLD and/or NASH, such as hepatocyte ballooning, steatosis, and lobular inflammation, are provided. […] Thus, in some embodiments, administration of pirfenidone as described herein is hypothesized to decrease ballooning and measurably lower plasma and/or liver CK-18 levels in as few as 3 to 12 weeks after treatment initiation. In some embodiments, it is hypothesized that continued daily administration of pirfenidone is efficacious in decreasing inflammation and fibrosis in NASH within 2 to 72 weeks after treatment initiation. In some embodiments, it is hypothesized that treatment with pirfenidone results in an improvement in one or more parameters such as improved ALT enzyme levels, decreased inflammation, decreased steatosis, reduced severity of NASH symptoms, reduced levels of NASH biomarkers such as CK-18, or the slowing, stopping, or reversing of liver fibrosis.

advanced NASH = settings: after a year of treatment; cited from earlier work

CC(C)C[C@H](NC(=O)[C@@H](O)[C@H](N)Cc1ccccc1)C(=O)O [Ubenimex, (2S)-2-[[(2S,3R)-3-amino-2-hydroxy-4-phenylbutanoyl]amino]-4-methylpentanoic acid]
solubility in water ([1]; water): 1270 µg/mL (≈ 4.12 mM)

Cc1ccc(=O)n(-c2ccccc2)c1 [pirfenidone, 5-methyl-1-phenyl-2-1-(H)-pyridone]
hepatocyte ballooning (animal model of NASH; animal model of NASH): demonstrates efficacy in slowing and preventing hepatocyte ballooning | lobular inflammation (animal model of NASH; animal model of NASH): reduces | steatosis (animal model of NASH; animal model of NASH): reduces steatosis | plasma CK-18 levels (animal model of NASH; relative to control animals): decline significantly | relative solubility in solvents ([1]; methanol, ethyl alcohol, acetone, chloroform vs water and 1.0 N HCl): more soluble in methanol, ethyl alcohol, acetone and chloroform than in water and 1.0 N HCl

CCCCOCCOc1ccc(-c2ccc3c(c2)/C=C(/C(=O)Nc2ccc([S@@+]([O-])Cc4cncn4CCC)cc2)CCCN3CC(C)C)cc1 [cenicriviroc]
primary endpoint of improving inflammation and liver damage (advanced NASH): failed to meet its primary endpoint
